Where two headings read alike, the source gives them in different places.
Target: T1, flTau aggregates (longest isoform of human Tau, 2N4R) (Homo sapiens, UniProt P10636)
T1 construct: 35 μM of recombinant full-length (fl) Tau in phosphate-buffered saline (PBS) were aggregated; purchased Biotechne; host or cells: bacteria
Assay: Full-length Tau (flTau) disaggregation assay by Thioflavin T (ThT)
Assay type: biochemical
Conditions: 60 nM flTau aggregates, 30 minutes at RT
Procedure: Full-Length Tau (flTau) Disaggregation Assay by Thioflavin T (ThT)
The longest isoform of human Tau (2N4R; 441 amino acids) was expressed in bacteria and purified (Biotechne). For the Tau disaggregation assay by ThT, 35 μM of recombinant full-length (fl) Tau in phosphate-buffered saline (PBS) were aggregated for 72 hours at 37° C. in presence of 35 μM of heparin (Sigma-Aldrich) and 10 mM of […] (Sigma-Aldrich) under shaking at 1000 RPM. Compound 1 was dissolved in anhydrous dimethyl sulfoxide (DMSO, Sigma-Aldrich) to reach a concentration of 2.5 mM. flTau aggregates and serial dilutions of compound 1 were mixed together in PBS (volume 50 μL) to a final concentration of 60 nM of flTau aggregates and from 20 to 0.0012 μM of Compound 1. The mixture was incubated for 30 minutes at room temperature (RT), then 40 μL of this mixture were transferred into a black 384-well plate assay (Perkin-Elmer) and mixed with 10 μL of 20 μM ThT in 250 mM glycine (both from Sigma-Aldrich) in PBS. Fluorescence (relative fluorescence units; RFU) was measured in monoplicate or duplicate on a Tecan reader (excitation: 440 nm; emission: 485 nm). Percentage of flTau disaggregation was then calculated and the half maximal effective concentration (EC50) was determined using GraphPad Prism version 8 (GraphPad Software) assuming a one-binding site fitting model, see Table 3 and Table 4.

[1] = ThT fluorescence, read-out: flTau disaggregation EC50

T1 sequence (P10636 1-441 isoform P10636-8): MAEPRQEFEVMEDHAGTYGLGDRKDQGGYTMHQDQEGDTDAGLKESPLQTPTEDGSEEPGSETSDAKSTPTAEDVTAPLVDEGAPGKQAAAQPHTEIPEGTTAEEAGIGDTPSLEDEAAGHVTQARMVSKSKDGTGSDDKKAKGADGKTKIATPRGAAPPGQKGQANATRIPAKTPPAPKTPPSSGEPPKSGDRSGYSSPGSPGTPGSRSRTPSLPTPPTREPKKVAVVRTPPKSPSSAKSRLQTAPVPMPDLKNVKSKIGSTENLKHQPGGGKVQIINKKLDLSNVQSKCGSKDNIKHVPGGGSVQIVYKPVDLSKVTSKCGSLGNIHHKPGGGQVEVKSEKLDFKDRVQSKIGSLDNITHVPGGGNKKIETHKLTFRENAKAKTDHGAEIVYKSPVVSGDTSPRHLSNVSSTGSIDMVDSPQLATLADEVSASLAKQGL

Structure (SMILES)	EC50 [1]	EC50 (flTau disaggregation EC50, ThT fluorescence)
c1ccc2c(-c3cnn(-c4ccc5oc(N6CCOCC6)nc5c4)c3)n[nH]c2c1 [Example 8, 5-(4-(1H-indazol-3-yl)-1H-pyrazol-1-yl)-2-morpholinobenzo[d]oxazole]	< 1 µM	–
c1ccc2c(C3CCN(c4cnc5nc(N6CCOCC6)sc5c4)CC3)c[nH]c2c1 [Example 28, 4-(6-(4-(1H-indol-3-yl)piperidin-1-yl)thiazolo[4,5-b]pyridin-2-yl)morpholine]	< 1 µM	–
Cn1cc(C2CCN(c3ccc4oc(N5CCOCC5)nc4c3)CC2)c2ncc(F)cc21 [Example 105, 5-(4-(6-fluoro-1-methyl-1H-pyrrolo[3,2-b]pyridin-3-yl)piperidin-1-yl)-2-morpholinobenzo[d]oxazole]	10 to 50 µM	–
C(#Cc1n[nH]c2ccccc12)c1ccc2oc(N3CCOCC3)nc2c1 [Example 5, 5-((1H-indazol-3-yl)ethynyl)-2-morpholinobenzo[d]oxazole]	< 1 µM	–
Fc1ccc2[nH]nc(C3CCN(c4ccc5oc(N6CCOCC6)nc5c4)CC3)c2c1 [Example 61, 5-(4-(5-fluoro-1H-indazol-3-yl)piperidin-1-yl)-2-morpholinobenzo[d]oxazole]	1 to 10 µM	–
COC1CCN(c2nc3cc(N4CCC(c5cn(C)c6ncc(F)cc56)C4)ccc3o2)CC1 (stereo not drawn) [Example 97, 5-(3-(5-fluoro-1-methyl-1H-pyrrolo[2,3-b]pyridin-3-yl)pyrrolidin-1-yl)-2-(4-methoxypiperidin-1-yl)benzo[d]oxazole]	1 to 10 µM	–
Cc1cccc2[nH]nc(C3CCN(c4ccc5oc(N6CCOCC6)nc5c4)CC3)c12 [Example 93, 5-(4-(4-methyl-1H-indazol-3-yl)piperidin-1-yl)-2-morpholinobenzo[d]oxazole]	1 to 10 µM	–
Cc1ccc2c(C3CCN(c4ccc5oc(N6CCOCC6)nc5c4)CC3)n[nH]c2c1 [Example 77, 5-(4-(6-methyl-1H-indazol-3-yl)piperidin-1-yl)-2-morpholinobenzo[d]oxazole]	1 to 10 µM	–
Cn1cc(C2CCN(c3ccc4oc(N5CCOCC5)nc4n3)C2)c2cc(F)cnc21 (stereo not drawn) [Example 90, 5-(3-(5-fluoro-1-methyl-1H-pyrrolo[2,3-b]pyridin-3-yl)pyrrolidin-1-yl)-2-morpholinooxazolo[4,5-b]pyridine]	< 1 µM	–
O=C(Nc1ccc2oc(N3CCOCC3)nc2c1)c1c[nH]c2ncccc12 [Example 13, N-(2-morpholinobenzo[d]oxazol-5-yl)-1H-pyrrolo[2,3-b]pyridine-3-carboxamide]	< 1 µM	–
Cn1cc(C2CCN(c3cc4nc(N5CCOCC5)oc4cn3)C2)c2cc(F)cnc21 (stereo not drawn) [Example 86, 6-(3-(5-fluoro-1-methyl-1H-pyrrolo[2,3-b]pyridin-3-yl)pyrrolidin-1-yl)-2-morpholinooxazolo[5,4-c]pyridine]	1 to 10 µM	–
c1ccc2c(C3CCN(c4cc5nc(N6CCOCC6)oc5cn4)CC3)n[nH]c2c1 [Example 45, 6-(4-(1H-indazol-3-yl)piperidin-1-yl)-2-morpholinooxazolo[5,4-c]pyridine]	1 to 10 µM	–
c1ccc2c(C3CCN(c4cc5oc(N6CCOCC6)nc5cn4)CC3)n[nH]c2c1 [Example 72, 6-(4-(1H-indazol-3-yl)piperidin-1-yl)-2-morpholinooxazolo[4,5-c]pyridine]	10 to 50 µM	–
Fc1ccc2c(C3CCN(c4ccc5oc(N6CCOCC6)nc5c4)CC3)n[nH]c2c1 [Example 74, 5-(4-(6-fluoro-1H-indazol-3-yl)piperidin-1-yl)-2-morpholinobenzo[d]oxazole]	1 to 10 µM	–
FC1CN(c2ccc3oc(N4CCOCC4)nc3c2)CCC1c1n[nH]c2ccccc12 (stereo not drawn) [Example 94, 5-(3-fluoro-4-(1H-indazol-3-yl)piperidin-1-yl)-2-morpholinobenzo[d]oxazole]	1 to 10 µM	–
C1=C(c2c[nH]c3ccccc23)CCN(c2ccc3oc(N4CCOCC4)nc3c2)C1 [Example 107, 5-(4-(1H-indol-3-yl)-3,6-dihydropyridin-1(2H)-yl)-2-morpholinobenzo[d]oxazole]	< 1 µM	–
c1ccc2c(C3CCN(c4ccc5nc(N6CCOCC6)sc5n4)CC3)n[nH]c2c1 [Example 106, 4-(5-(4-(1H-indazol-3-yl)piperidin-1-yl)thiazolo[5,4-b]pyridin-2-yl)morpholine]	1 to 10 µM	–
Cn1cc(C2CCN(c3cnc4oc(N5CCOCC5)nc4c3)C2)c2cc(F)cnc21 (stereo not drawn) [Example 85, 6-(3-(5-fluoro-1-methyl-1H-pyrrolo[2,3-b]pyridin-3-yl)pyrrolidin-1-yl)-2-morpholinooxazolo[5,4-b]pyridine]	< 1 µM	–

Structure (SMILES)	EC50 [1]	EC50 (flTau disaggregation EC50, ThT fluorescence)
c1ccc2c(-c3ccn(-c4ccc5oc(N6CCOCC6)nc5c4)n3)n[nH]c2c1 [Example 10, 5-(3-(1H-indazol-3-yl)-1H-pyrazol-1-yl)-2-morpholinobenzo[d]oxazole]	< 1 µM	–
Cn1cc(C2CCN(c3cnc4oc(N5CCOCC5)nc4c3)C2)c2cc(F)cnc21 (stereo not drawn) [Example 84, 6-(3-(5-fluoro-1-methyl-1H-pyrrolo[2,3-b]pyridin-3-yl)pyrrolidin-1-yl)-2-morpholinooxazolo[5,4-b]pyridine]	1 to 10 µM	–
Cc1ccc2[nH]nc(C3CCN(c4ccc5oc(N6CCOCC6)nc5c4)CC3)c2c1 [Example 76, 5-(4-(5-methyl-1H-indazol-3-yl)piperidin-1-yl)-2-morpholinobenzo[d]oxazole]	1 to 10 µM	–
O=C(Nc1ccc2oc(N3CCOCC3)nc2c1)c1c[nH]c2ccccc12 [Example 12, N-(2-morpholinobenzo[d]oxazol-5-yl)-1H-indole-3-carboxamide]	< 1 µM	–
Cn1cc(C2CCN(c3ccc4oc(N5CCOCC5)nc4c3)CC2)c2ccccc21 [Example 68, 5-(4-(1-methyl-1H-indol-3-yl)piperidin-1-yl)-2-morpholinobenzo[d]oxazole]	1 to 10 µM	–
Cn1cc(C2CCN(c3ccc4nc(N5CCOCC5)sc4c3)C2)c2cc(F)cnc21 (stereo not drawn) [Example 82, 4-(6-(3-(5-fluoro-1-methyl-1H-pyrrolo[2,3-b]pyridin-3-yl)pyrrolidin-1-yl)benzo[d]thiazol-2-yl)morpholine]	< 1 µM	–
c1ccc2c(C3CCN(c4ccc5oc(N6CCOCC6)nc5c4)C3)c[nH]c2c1 (stereo not drawn) [Example 40, 5-(3-(1H-indol-3-yl)pyrrolidin-1-yl)-2-morpholinobenzo[d]oxazole]	< 1 µM	–
c1ccc2c(-c3ccc4oc(N5CCOCC5)nc4c3)n[nH]c2c1 [Example 4, 5-(1H-indazol-3-yl)-2-morpholinobenzo[d]oxazole]	< 1 µM	–
Cn1cc(C2CCN(c3ccc4nc(N5CCOCC5)oc4c3)C2)c2cc(F)cnc21 (stereo not drawn) [Example 89, 6-(3-(5-fluoro-1-methyl-1H-pyrrolo[2,3-b]pyridin-3-yl)pyrrolidin-1-yl)-2-morpholinobenzo[d]oxazole]	< 1 µM	–
Cn1nc(C2CCN(c3ccc4oc(N5CCOCC5)nc4c3)CC2)c2cccnc21 [Example 31, 5-(4-(1-methyl-1H-pyrazolo[3,4-b]pyridin-3-yl)piperidin-1-yl)-2-morpholinobenzo[d]oxazole]	1 to 10 µM	–
Cn1cc(C2CCN(c3ccc4oc(N5CC6CC(C5)O6)nc4c3)C2)c2cc(F)cnc21 (stereo not drawn) [Example 98, 3-(5-(3-(5-fluoro-1-methyl-1H-pyrrolo[2,3-b]pyridin-3-yl)pyrrolidin-1-yl)benzo[d]oxazol-2-yl)-6-oxa-3-azabicyclo[3.1.1]heptane]	–	1 to 10 µM
Fc1cnc2[nH]cc(C3CCN(c4ccc5oc(N6CCOCC6)nc5c4)CC3)c2c1 [Example 22, 5-(4-(5-fluoro-1H-pyrrolo[2,3-b]pyridin-3-yl)piperidin-1-yl)-2-morpholinobenzo[d]oxazole]	1 to 10 µM	–
c1ccc2c(C3CCN(c4cnc5nc(N6CCOCC6)oc5c4)CC3)c[nH]c2c1 [Example 100, 6-(4-(1H-indol-3-yl)piperidin-1-yl)-2-morpholinooxazolo[4,5-b]pyridine]	1 to 10 µM	–
c1ccc2c(C3CCN(c4cnc5oc(N6CCOCC6)nc5c4)CC3)n[nH]c2c1 [Example 49, 6-(4-(1H-indazol-3-yl)piperidin-1-yl)-2-morpholinooxazolo[5,4-b]pyridine]	10 to 50 µM	–
Cn1cc(C2CCN(c3ccc4oc(N5CCOCC5)nc4n3)C2)c2cc(F)cnc21 (stereo not drawn) [Example 91, 5-(3-(5-fluoro-1-methyl-1H-pyrrolo[2,3-b]pyridin-3-yl)pyrrolidin-1-yl)-2-morpholinooxazolo[4,5-b]pyridine]	< 1 µM	–
Cn1cc(C2CCN(c3ccc4nc(N5CCOCC5)sc4c3)C2)c2cc(F)cnc21 (stereo not drawn) [Example 83, 4-(6-(3-(5-fluoro-1-methyl-1H-pyrrolo[2,3-b]pyridin-3-yl)pyrrolidin-1-yl)benzo[d]thiazol-2-yl)morpholine]	< 1 µM	–
COc1cccc2c(C3CCN(c4ccc5oc(N6CCOCC6)nc5c4)CC3)n[nH]c12 [Example 92, 5-(4-(7-methoxy-1H-indazol-3-yl)piperidin-1-yl)-2-morpholinobenzo[d]oxazole]	1 to 10 µM	–
Cn1cc(C2CCN(c3ccc4sc(N5CCOCC5)nc4c3)C2)c2cc(F)cnc21 (stereo not drawn) [Example 95, 4-(5-(3-(5-fluoro-1-methyl-1H-pyrrolo[2,3-b]pyridin-3-yl)pyrrolidin-1-yl)benzo[d]thiazol-2-yl)morpholine]	1 to 10 µM	–

— patent US20230391774A1, “Novel Compounds” (AC Immune SA, priority 2020, published 2023)
